Data as given in US8236761B2, “C-Met receptor regulation by angiotensin IV (AT4) receptor ligands” (Washington State University Research Foundation, priority 2006, dated 2012).
Non-standard residues stand in square brackets, D forms with d. No end group written: not given here. Nle = CCCC[C@H](N)C(=O)O

Test system: neovascularization
Assay: Disc angiogenesis assay (subcutaneous sponge disc)
Assay type: in vivo, Sprague Dawley rats
Conditions: 50 μg per disc core, 14 days, rat
Method: FIG. 19 depicts effects on angiogenesis of angiotensin-like factors in a rat in vivo disc angiogenesis assay. Vascularization was quantified by digital image analysis of fixed and stained discs recovered from animals 14 days after subcutaneous implantation of sponge discs containing the indicated compounds.
Disc Angiogenesis Assay. […] A 2 mm core was removed from the center of each disc, saturated with 50 μg of Nle^1-AngIV (SEQ ID NO:41), Nle^1-Leu^3-Ψ(CH2NH2)^3-4-AngIV, Hexamide, or ethanol (control), air dried, then sealed using a fixative (Elvax, DuPont) to allow sustained delivery of the drug treatment into the disc and adjacent tissues. The cores were dried for 30 min, then reinserted into the sponge discs. Impermeable top and bottom covers were prepared by coating 10 mm diameter paper discs with a plexiglass coating, then glued to the top and bottom of the sponge discs, leaving only the rim of the disc available for centripetal cellular penetration. Just prior to implantation, the discs were soaked briefly in sterile saline.
Thirty-two Sprague Dawley female rats (225-275 gr) were used to evaluate four compounds for angiogenic or anti-angiogenic properties using the disc angiogenesis assay. Animals were anesthetized using sodium pentobarbital (40 mg/kg IP). The dorsum was then shaved and aseptically prepped. Each animal received four discs. Animals receiving treated discs were implanted with 2 treated discs and 2 ethanol-soaked control discs. Thus, in a group of 4 animals there were 8 treatment discs, and 8 control discs. These control discs were used to determine whether the ligand had potential systemic effects. Another group of 4 animals received only ethanol-soaked control discs (spontaneous growth controls or SGC discs) for an n=16. However, one SGC was fragmented during processing leaving an n=15.
Four 2 cm cutaneous incisions were made along the dorsum (left thoracic, right thoracolumbar, left thoracolumbar, and right lumbar), and subcutaneous pouches opened in the fascia using blunt dissection. Discs were moistened in sterile saline, inserted deep to the pouch, and the skin closed with sterile surgical staples. Animals were recovered under heat lamps until sternally recumbent, then individually housed for 14 days in an AAALAC accredited facility (water and food ad libitum; 12/12 hour light cycle).
After 14 days the animals were euthanized in a CO2 chamber and the discs were removed. […] Cellular penetration into the discs was quantified using a digital imaging system (Imaging Research Inc., St. Catharines, Ontario, Canada). The total area of the disc was calculated, as was the area containing stained cells. […]
Results. Following staining with toludine blue or Factor VIII, neovascularization was quantitated by densitometry.

## Nle-Tyr-Leu-ψ-His-Pro-Phe ([Nle]YLHPF; also: reduced peptide bond psi(CH2NH2) between Leu and His) [Norleual]
  Effect on angiogenesis in disc assay versus SGC discs: antagonist activity
